Earlier results as cited in US7491713B2, “CGRP receptor antagonists” (Merck + Co., Inc., priority 2004, dated 2009).
Ends that are not written are not given here.

Tests used:
[1] = test system: marmoset; settings: marmoset (Doods et al. 2000)
[2] = test system: rats; settings: prior administration (Williamson et al. 1997)
[3] = test system: rat; settings: rat (Escott et al. 1995)

| Compound | effect on stimulation-induced increase of facial blood flow [1] | effect on stimulation-induced increase of middle meningeal artery diameter [2] | effect on stimulation-induced increase of facial blood flow [3] |
| --- | --- | --- | --- |
| NCCCC[C@H](NC(=O)[C@@H](Cc1cc(Br)c(O)c(Br)c1)NC(=O)N1CCC(N2Cc3ccccc3NC2=O)CC1)C(=O)N1CCN(c2ccncc2)CC1 [BIBN4096BS] | blocked |  |  |
| CGRP(8-37): a fragment of CGRP that lacks seven N-terminal amino acid residues; a peptide CGRP antagonist (VTHRLAGLLSRSGGVVKNNFVPTNVGSKAF; ends and bridges not checked; UniProt P06881 90-119, looked up, fragment) |  | blocked | inhibited |
